Entries after “also recorded” stand apart in the source; their conditions may differ.
Tests used:
[1] = tested on: human MAFbx promoter; assay: Human MAFbx promoter luciferase reporter assay in C2C12 / C2C12.AR cells; format: cell-based
Source text: The reporter genes pMAF3.1, pMAF2.4, pMAF948, pMAF400, and pMAF400-241 express firefly luciferase under the control of promoter regions of the human MAFbx gene and are described in Example 1. The rARC562G vector, encoding rat AR with a C562->G mutation in the first zinc binding module that disrupts binding of AR to DNA was described by Palvimo et al. (Mol Endocrinol 7: 1399-1407, 1993) pAR.4RKM (expressing AR with 4 R/K->M mutations in the nuclear localization sequence that is unable to enter the nucleus) and pAR.ABC (lacking the ligand binding domain) were described by Zhou et al. (J Biol Chem 269: 13115-13123, 1994). The pBabe.puro retroviral backbone described by Morgenstern and Land (Nucleic Acids Res 18: 3587-3596, 1990) was modified by introduction of a Not1 site. The ARE reporter gene expressing firefly luciferase under control of the MMTV hormone response element, and pSP72hAR-1, containing an insert of the full-length cDNA clone of the human AR, were provided by Dr. Diane Robins (University of Michigan). pRL-CMV expressing Renilla luciferase was from Promega (Madison, Wis.).
C2C12 cells (American Type Culture Collection, Manassas, Va.) were maintained in Dulbeco's modified Eagle's Medium (DMEM) containing 10% fetal bovine serum (FBS) and penicillin (100 U/ml)/streptomycin (100 μg/ml) (growth medium). Cells were incubated at 37° C. in humidified air containing 10% CO2. 293T cells (American Type Culture Collection) were maintained in growth medium as above. Transfection was achieved using Lipofectamine-Plus (Invitrogen, Carlsbad, Calif.) using 200 ng total DNA per well.
Cells were seeded into wells of 24-well plates (5×10^5 cells/well) then maintained overnight in DMEM with 10% CDS-FBS. Cells were co-transfected with the various reporter genes and pRL-CMV. Cells were incubated in the transfection mixture overnight, then covered with DMEM supplemented with 10% charcoal-dextran-stripped FBS (CDS-FBS) and either ethanol (EtOH) or hormones dissolved in EtOH. Cells were maintained for an additional 24 hours, at which time both firefly and renilla luciferase activity were determined using the Dual Luciferase Assay (Promega, Madison, Wis.) and a Berthold 96-well plate luminometer. Firefly luciferase activities were normalized relative to renilla luciferase. Ethanol concentrations were less than 0.1%.

[2] = tested on: MAFbx; assay: MAFbx expression in gastrocnemius of rats infused with dexamethasone with or without testosterone (qPCR); format: in vivo; conditions: rat, dexamethasone 0.7 mg/kg/day infusion, 7 days
Experimental: Muscle was flash frozen on dry ice after excision. Total RNA was isolated by phenol:chloroform extraction (Chomczynski and Sacchi, Anal Biochem 162: 156-159, 1987) and further enriched using RNAeasy minicolumns (Qiagen) with digestion on the column with RNAse-free DNAse (Qiagen).
RNA was quantified by absorbance at 260 nm. One microgram of total RNA was used to prepare cDNA libraries using the High Capacity cDNA Archive Kit (Applied Biosystems, Foster City, Calif.). Libraries were diluted 25-fold with water. Real time PCR was performed using Taqman 2×PCR buffer (Applied Biosystems) and an Applied Biosystems 7500 thermocycler. Data were normalized relative to that for 18S RNA. Relative changes in expression were determined using the 2^−ΔΔCt method. Taqman Assay on Demand probes (Applied Biosystems) were used for all assays except rat 18S RNA, which was quantified using the following […]: Forward: […] (SEQ ID NO:15); Reverse: […] (SEQ ID NO:16); Probe: FAM-[…] (SEQ ID NO:17; Labeled with FAM and non-fluoresent quencher, NFQ, at 5′ and 3′ ends, repsectively).
Male Wistar rats weighing 250 gm were anesthetized with ketamine/xylazine followed by implantation Alzet miniosmotic pumps administering vehicle (propylene glycocol), dexamethasone (0.7 mg/kg/day), or dexamethasone plus testosterone (28 mg/kg/day). […]

[3] = tested on: MAFbx mRNA; assay: MAFbx mRNA levels in AR6 / C2C12.AR cells (qPCR); format: cell-based, mouse; conditions: dexamethasone overnight
Experimental: (A) Rats were administered test agents as indicated in the figure for 7-days, at which time animals were sacrificed and MAFbx expression was determined in gastrocnemius muscles by qPCR. Data are mean values±SEM for at least 8 animals. * p<0.05 vs vehicle, t-test. (B) AR6 cells were seeded into 6-well plates and incubated overnight in growth medium. Medium was replaced with DMEM containing 2% horse serum followed by incubation for an additional 48 hours. Hormones or vehicle (EtOH) were added to the medium and cells were incubated overnight, at which time MAFbx mRNA levels were determined by qPCR and expressed as fold-induction versus levels in cells incubated with EtOH. Data are mean values±SEM for three determinations each performed in triplicate. * p<0.05 vs. EtOH (ANOVA). (C) Effect of testosterone on MAFbx mRNA half-life. C2C12.AR cells were incubated overnight in growth medium supplemented with testosterone or vehicle (EtOH). […] Levels of MAFbx mRNA are expressed as a percentage of those at time zero. […]
RNA was quantified by absorbance at 260 nm. […] Relative changes in expression were determined using the 2^−ΔΔCt method. Taqman Assay on Demand probes (Applied Biosystems) were used for all assays except rat 18S RNA, which was quantified using the following Assay on Demand Probes: Forward: […] […]

[4] = tested on: human IGF-1 promoter; assay: Human IGF-1 promoter luciferase reporter assay in HepG2 cells; format: cell-based
Source text: pREP4.hAR, expressing full length human AR, and pCMV.Sport.β-Gal, expressing β-galactosidase under a CMV promoter, were as described (Zhao et al., Steroids 69: 357-366, 2004). pcDNA5.rGR, expressing rat glucocorticoid receptor, was provided by Dr. Diane Robins (University of Michigan). The rARC562G vector expressing rat AR with a C562G mutation in the DBD, which results in a loss of DNA binding. The IGF-1 reporter genes pOLuc.1630, pOLuc1300, pOLuc926, pOLuc 320 were provided by Dr. Peter Rotwein (Oregon Health & Science University). These reporters expressed firefly luciferase under the control of 320 to 1630 bases upstream of the transcriptional start site of the human IGF-1 promoter as described in (Kim et al., Mol Endocrinol 5: 1964-1972, 1991). pEGX 4T-1 hAR2, expressing GST fused to the N-terminus of AR DNA-binding domain, was provided by Robert J. Matusik, Ph.D. (Vanderbuilt University Medical Center). pRL-CMV expressing Renilla luciferase was from Promega (Madison, Wis.).
HepG2 cells (ATCC, Bethesda, Md.) were maintained in Dulbecco's modified Eagle's medium (DMEM), supplemented with 10% fetal bovine serum (FBS) and antibiotics (penicillin 100 U/ml, streptomycin 100 μg/ml). Cells were seeded at 5×10^4 cells/per well into wells of 24-well plates containing DMEM supplemented with 10% charcoal-dextran stripped FBS (CDS-FBS). The next day, cells were transfected with a total of 300 ng DNA per well using Lipofectamine Plus (Invitrogen) with plasmids as indicated in the figure legends. Three hours after transfection, cells were covered with DMEM supplemented with 10% CDS-FBS and either hormone dissolved in ethanol, or ethanol, as indicated in the figures. […] After overnight incubation, activities of firefly and Renilla luciferase were determined using the Dual Luciferase Assay system (Promega).
Reporter plasmids expressing firefly luciferase under the control of upstream regions of the IGF-1 promoter were constructed by PCR amplification of segments of interest using primers shown in Table 2, using pOLuc-1630 as a template. The location of each amplified fragment is relative to the transcriptional start site. PCR amplification was conduced using a high fidelity Taq polymerase (Pfx, Invitrogen). PCR products were cloned into pCR2.1-TOPO TA (Invitrogen) and the sequences of the inserts were verified. Inserts were excised with Kpn I and Xho I, and were subcloned into pGL3-Promoter (Promega) at these same sites. PGL3-Promoter expresses firefly luciferase under the control of a minimal promoter.

| SMILES | increase in luciferase expression of pMAF3.1 reporter ([1]; C2C12.AR cells, dexamethasone) | increase in expression of MAFbx in gastrocnemius muscle [2] | increase in MAFbx mRNA expression [3] | activation of reporters incorporating ARE2 or both AREs (p3-13a and p3-32) ([4]; HepG2 + GR, dexamethasone) | induction of luciferase expression, reporters incorporating ARE1 (p3-230 and p3-22) ([4]; HepG2 + GR, dexamethasone) | suppression of reporter under control of 3.1 of the MAFbx upstream promoter ([1]; C2C12 muscle cells, 5 μM) | expression of MAFbx reporter (general statement) ([1]; cells transduced with the MAFbx reporter construct) | activation of the upstream promoter of the human IGF-1 gene ([4]; Hep G2 cells, FIG. 18) |
| --- | --- | --- | --- | --- | --- | --- | --- | --- |
| C[C@@H]1C[C@H]2[C@@H]3CCC4=CC(=O)C=C[C@]4(C)[C@@]3(F)[C@@H](O)C[C@]2(C)[C@@]1(O)C(=O)CO [dexamethasone] | more than 1.5 fold | ~4 fold | approximately 3 fold | 5 fold | less than 2 fold | – | – | – |
| C[C@]12COC(=O)C[C@@H]1CC[C@@H]1[C@@H]2CC[C@@]2(C)[C@H]1CC[C@]2(C)O [oxandrolone] | – | – | – | – | – | 15% | does not decrease; also recorded: less effective | does not induce and not |

Reference: patent US7429482B2, “Screening tools for discovery of novel anabolic agents” (United States of America as represented by the Department …, priority 2005, dated 2008)
